Measurements as given in the NIST ThermoML archive (doi:10.1007/s10765-006-0047-0).

How the values were obtained:
[1] = 298.15 K, 101.33 kPa, Liquid; for mass density: Pycnometric method; for speed of sound: Sing-around technique in a fixed-path interferometer
[2] = xn = mol fraction of the nth substance listed; conditions: 298.15 K, 101 kPa, Liquid, Sing-around technique in a fixed-path interferometer

COCCOCCO [2-(2-methoxyethoxy)ethanol]
[1]
Conditions | mass density [kg/m3] | speed of sound [m/s]
– | 1016.43 | 1417.2

COCCOCCO [2-(2-methoxyethoxy)ethanol] + CCCN
[2]
Conditions | speed of sound [m/s]
x1 = 0.0055 | 1215.3
x1 = 0.0112 | 1217
x1 = 0.024 | 1220.2
x1 = 0.0454 | 1225.5
x1 = 0.0749 | 1233.3
x1 = 0.0948 | 1238.6
x1 = 0.1292 | 1249.1
x1 = 0.1834 | 1264.6
x1 = 0.2523 | 1284.5
x1 = 0.309 | 1301.5
x1 = 0.3831 | 1320.8
x1 = 0.4484 | 1337
x1 = 0.5041 | 1349.4
x1 = 0.5603 | 1360.6
x1 = 0.6353 | 1373.2
x1 = 0.6792 | 1380
x1 = 0.7209 | 1385.9
x1 = 0.7775 | 1392.7
x1 = 0.8121 | 1397.5
x1 = 0.8725 | 1404.9
x1 = 0.912 | 1408.8
x1 = 0.9332 | 1411.2
x1 = 0.9535 | 1413.1
x1 = 0.9852 | 1416.5
x1 = 0.9983 | 1417.1

COCCOCCOCCO [2-[2-(2-methoxyethoxy)ethoxy]ethanol]
[1]
Conditions | mass density [kg/m3] | speed of sound [m/s]
– | 1043.06 | 1459

COCCOCCOCCO [2-[2-(2-methoxyethoxy)ethoxy]ethanol] + CCCN
[2]
Conditions | speed of sound [m/s]
x1 = 0.0039 | 1216.1
x1 = 0.0134 | 1219.9
x1 = 0.0327 | 1226.9
x1 = 0.0519 | 1234.2
x1 = 0.0799 | 1245.4
x1 = 0.108 | 1258
x1 = 0.1484 | 1274.9
x1 = 0.2102 | 1299.7
x1 = 0.2743 | 1324.5
x1 = 0.341 | 1347.6
x1 = 0.3879 | 1361.8
x1 = 0.4351 | 1375
x1 = 0.5433 | 1398.7
x1 = 0.5904 | 1407.5
x1 = 0.6475 | 1416
x1 = 0.6873 | 1422.1
x1 = 0.7353 | 1429.5
x1 = 0.7806 | 1434.9
x1 = 0.8226 | 1441.1
x1 = 0.8873 | 1448.3
x1 = 0.9295 | 1452.6
x1 = 0.9565 | 1456.2
x1 = 0.9751 | 1457
x1 = 0.9898 | 1458.5
x1 = 0.9973 | 1458.7

COCCO [2-methoxyethan-1-ol]
[1]
Conditions | mass density [kg/m3] | speed of sound [m/s]
– | 960.32 | 1343.3

CCCCOCCOCCO [3,6-dioxa-1-decanol]
[1]
Conditions | mass density [kg/m3] | speed of sound [m/s]
– | 947.98 | 1358.9

CCCCOCCOCCO [3,6-dioxa-1-decanol] + CCCN
[2]
Conditions | speed of sound [m/s]
x1 = 0.0052 | 1215.5
x1 = 0.0133 | 1218.1
x1 = 0.0295 | 1223
x1 = 0.0505 | 1228.7
x1 = 0.0779 | 1236.9
x1 = 0.1487 | 1256.7
x1 = 0.2053 | 1272.3
x1 = 0.2645 | 1286.7
x1 = 0.318 | 1298.6
x1 = 0.378 | 1310.2
x1 = 0.4304 | 1319.4
x1 = 0.4767 | 1326
x1 = 0.5226 | 1331.6
x1 = 0.5715 | 1336.8
x1 = 0.6306 | 1342.1
x1 = 0.6855 | 1346.2
x1 = 0.7347 | 1349.4
x1 = 0.7728 | 1351.3
x1 = 0.8152 | 1353.3
x1 = 0.87 | 1355.9
x1 = 0.9073 | 1356.7
x1 = 0.9289 | 1357.7
x1 = 0.9504 | 1358.3
x1 = 0.9663 | 1358.5
x1 = 0.9813 | 1358.7

CCOCCOCCO [3,6-dioxa-1-octanol]
[1]
Conditions | mass density [kg/m3] | speed of sound [m/s]
– | 983.84 | 1377.3

CCOCCOCCO [3,6-dioxa-1-octanol] + CCCN
[2]
Conditions | speed of sound [m/s]
x1 = 0.0021 | 1215.3
x1 = 0.0048 | 1215.4
x1 = 0.0177 | 1218.7
x1 = 0.0374 | 1223.3
x1 = 0.0647 | 1230.5
x1 = 0.0909 | 1236.8
x1 = 0.1313 | 1247.7
x1 = 0.1669 | 1257.2
x1 = 0.2491 | 1278.4
x1 = 0.3135 | 1293.9
x1 = 0.3898 | 1310.7
x1 = 0.4519 | 1322.7
x1 = 0.4879 | 1329.1
x1 = 0.5348 | 1337.5
x1 = 0.5888 | 1344.5
x1 = 0.6314 | 1349.7
x1 = 0.6808 | 1355.5
x1 = 0.7314 | 1359.9
x1 = 0.7778 | 1363.7
x1 = 0.8381 | 1367.3
x1 = 0.876 | 1370
x1 = 0.9121 | 1371.4
x1 = 0.9343 | 1373.1
x1 = 0.9624 | 1374.6
x1 = 0.9887 | 1375.9
x1 = 0.9971 | 1376.8

CCCCOCCOCCOCCCC [5,8,11-trioxapentadecane]
[1]
Conditions | mass density [kg/m3] | speed of sound [m/s]
– | 878.55 | 1270.1

CCCCOCCOCCOCCCC [5,8,11-trioxapentadecane] + CCCN
[2]
Conditions | speed of sound [m/s]
x1 = 0.0033 | 1215.3
x1 = 0.0114 | 1215.5
x1 = 0.033 | 1217.3
x1 = 0.0476 | 1218.4
x1 = 0.0724 | 1221
x1 = 0.0955 | 1222.8
x1 = 0.139 | 1227.3
x1 = 0.1781 | 1231.7
x1 = 0.2413 | 1237.2
x1 = 0.3004 | 1242
x1 = 0.3569 | 1245.8
x1 = 0.4169 | 1249.5
x1 = 0.4689 | 1251.9
x1 = 0.5355 | 1255.2
x1 = 0.5925 | 1258.2
x1 = 0.6493 | 1260.8
x1 = 0.6979 | 1262.9
x1 = 0.7548 | 1264.7
x1 = 0.8153 | 1266.6
x1 = 0.8686 | 1268.2
x1 = 0.9 | 1269
x1 = 0.9241 | 1269.5
x1 = 0.9526 | 1269.9
x1 = 0.977 | 1270.1
x1 = 0.991 | 1270.3

CCOCCOCCOCC [diethylene glycol diethyl ether]
[1]
Conditions | mass density [kg/m3] | speed of sound [m/s]
– | 902.76 | 1241.9

CCOCCOCCOCC [diethylene glycol diethyl ether] + CCCN
[2]
Conditions | speed of sound [m/s]
x1 = 0.0035 | 1214.7
x1 = 0.0108 | 1214.5
x1 = 0.025 | 1214
x1 = 0.0591 | 1214.1
x1 = 0.0865 | 1214.7
x1 = 0.1134 | 1215.2
x1 = 0.1662 | 1217.3
x1 = 0.2091 | 1218.8
x1 = 0.2738 | 1221.4
x1 = 0.3214 | 1223.8
x1 = 0.3658 | 1225.7
x1 = 0.3939 | 1227
x1 = 0.4846 | 1230.5
x1 = 0.5313 | 1232.3
x1 = 0.5713 | 1233.8
x1 = 0.6319 | 1235.6
x1 = 0.6754 | 1236.7
x1 = 0.7192 | 1238.1
x1 = 0.7754 | 1239.4
x1 = 0.8066 | 1240.1
x1 = 0.8729 | 1241.7
x1 = 0.9037 | 1242.1
x1 = 0.9238 | 1242.2
x1 = 0.9448 | 1242.3
x1 = 0.9638 | 1242.4
x1 = 0.9835 | 1242.5
x1 = 0.9916 | 1242.2

CCCN [propan-1-amine]
[1]
Conditions | mass density [kg/m3] | speed of sound [m/s]
– | 712.25 | 1215.2

CCCN [propan-1-amine] + COCCO
[2]
Conditions | speed of sound [m/s]
x2 = 0.0036 | 1215.3
x2 = 0.0101 | 1216.4
x2 = 0.0272 | 1218.3
x2 = 0.047 | 1221.7
x2 = 0.0831 | 1227.4
x2 = 0.1175 | 1232.5
x2 = 0.1521 | 1238.8
x2 = 0.1977 | 1247
x2 = 0.2378 | 1254
x2 = 0.2982 | 1265.6
x2 = 0.3629 | 1276.6
x2 = 0.4188 | 1285.8
x2 = 0.474 | 1294.1
x2 = 0.5181 | 1299.6
x2 = 0.5862 | 1307.8
x2 = 0.6459 | 1314.6
x2 = 0.7102 | 1321.5
x2 = 0.799 | 1329.7
x2 = 0.8253 | 1331.6
x2 = 0.8642 | 1334.2
x2 = 0.8918 | 1336.2
x2 = 0.908 | 1338
x2 = 0.9316 | 1339.5
x2 = 0.9621 | 1341.5
x2 = 0.9824 | 1342.9
x2 = 0.9932 | 1343.4
x2 = 0.9989 | 1343.5
